Experimental data published in ChEMBL document CHEMBL1201862, “PubChem BioAssay data set” (2004).
Values joined by “and” are separate entries in the source; they are usually repeats but may differ in a detail not shown here. Equal entries are not always repeated.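 A five-concentration, 48-hour dose response in 96-well plates underlies each endpoint, interpolated linearly between surrounding concentrations. At the GI50, growth is halved.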 Active and inactive are the calls of the source. No stated cut-off is given here; in the data, active = GI50 up to about 1.1 µM and inactive = higher.

How the values were obtained:
Assay in all cases: inhibition of tumour cell growth, NCI panel, 48 h
TK-10 = test system: TK-10
U-251 = test system: U-251
RXF 393 = test system: RXF 393
HCT-15 = test system: HCT-15
OVCAR-8 = test system: OVCAR-8
786-0 = test system: 786-0
HL-60 = test system: HL-60
SF-295 = test system: SF-295
HOP-92 = test system: HOP-92
SN12C = test system: SN12C
HCT-116 = test system: HCT-116
ACHN = test system: ACHN
NCI/ADR-RES = test system: NCI/ADR-RES
IGROV-1 = test system: IGROV-1
SW-620 = test system: SW-620
NCI-H460 = test system: NCI-H460
DU-145 = test system: DU-145
SF-268 = test system: SF-268

| Structure (SMILES) | GI50 (TK-10) | GI50 (U-251) | GI50 (RXF 393) | GI50 (HCT-15) [µM] | GI50 (OVCAR-8) | GI50 (786-0) | GI50 (HL-60) | GI50 (SF-295) | GI50 (HOP-92) | GI50 (SN12C) | GI50 (HCT-116) | GI50 (ACHN) | GI50 (NCI/ADR-RES) | GI50 (IGROV-1) | GI50 (SW-620) | GI50 (NCI-H460) | GI50 (DU-145) | GI50 (SF-268) |
| --- | --- | --- | --- | --- | --- | --- | --- | --- | --- | --- | --- | --- | --- | --- | --- | --- | --- | --- |
| CC(C)(C)OC(=O)NCC(CNC(=O)OC(C)(C)C)c1nc(C(N)=O)cs1 | > 100 µM (inactive) | > 100 µM (inactive) | > 100 µM (inactive) | > 100 | > 100 µM (inactive) | > 100 µM (inactive) | > 100 µM (inactive) | > 100 µM (inactive) | > 100 µM (inactive) | > 100 µM (inactive) | > 100 µM (inactive) | > 100 µM (inactive) | > 100 µM (inactive) | > 100 µM (inactive) | > 100 µM (inactive) | > 100 µM (inactive) |  |  |
| O=c1[nH]nc(-c2ccc3ccccc3c2)[nH]1 | > 100 µM (inactive) | > 100 µM (inactive) | > 100 µM (inactive) | > 100 | > 100 µM (inactive) | > 100 µM (inactive) | > 100 µM (inactive) | 45.5 µM (inactive) |  | > 100 µM (inactive) | > 100 µM (inactive) | > 100 µM (inactive) | > 100 µM (inactive) | 70.3 µM (inactive) | > 100 µM (inactive) | > 100 µM (inactive) | > 100 µM (inactive) | > 100 µM (inactive) |
| CCOC(=O)C(O)(NC(=O)Nc1ccc(F)cc1)C(F)(F)F (stereo not drawn) | > 100 µM (inactive) | > 100 µM (inactive) | > 100 µM (inactive) | > 100 | > 100 µM (inactive) | > 100 µM (inactive) | > 100 µM (inactive) |  |  | > 100 µM (inactive) | > 100 µM (inactive) | > 100 µM (inactive) | > 100 µM (inactive) | > 100 µM (inactive) | > 100 µM (inactive) |  |  | > 100 µM (inactive) |
| Cc1ccc([S+](c2ccccc2)c2cc(C)ccc2C)cc1 (stereo not drawn) |  |  |  |  | 4.59 µM (inactive) | 35.2 µM (inactive) | 1.97 µM (inactive) | 12.4 µM (inactive) |  | 5.94 µM (inactive) | 2.94 µM (inactive) | 11.2 µM (inactive) |  | 0.117 µM (active) | 5.64 µM (inactive) | 6.38 µM (inactive) |  | 6.64 µM (inactive) |
| CCCCc1c(C(=O)OC(C)(C)C)cc(C#Cc2cc(C(=O)OC(C)(C)C)c(CCCC)c(C(=O)OC(C)(C)C)c2)cc1C(=O)OC(C)(C)C | > 100 µM (inactive) | > 100 µM (inactive) |  | > 100 |  | > 100 µM (inactive) |  | > 100 µM (inactive) | > 100 µM (inactive) | > 100 µM (inactive) | > 100 µM (inactive) | > 100 µM (inactive) | > 100 µM (inactive) | > 100 µM (inactive) |  | > 100 µM (inactive) | > 100 µM (inactive) | > 100 µM (inactive) |
| CN(C)CCNC(=O)c1cccc2ccc(-c3ccncc3)nc12 | 2.21 µM (inactive) | 1.63 µM (inactive) | 2.36 µM (inactive) | 1.44 | 2.26 µM (inactive) | 2.72 µM (inactive) | 0.877 µM (active) | 2.88 µM (inactive) | 2.16 µM (inactive) | 1.61 µM (inactive) | 1.27 µM (inactive) | 1.17 µM (inactive) |  | 1.47 µM (inactive) | 1.33 µM (inactive) | 0.403 µM (active) |  | 3.79 µM (inactive) |
| O=c1[nH]nc(Cc2ccccc2)n1/N=C/c1ccc(/C=N/n2c(Cc3ccccc3)n[nH]c2=O)cc1 | 54 µM (inactive) | 57.3 µM (inactive) | 35.3 µM (inactive) | > 100 | > 100 µM (inactive) | > 100 µM (inactive) | 40.5 µM (inactive) | 77.3 µM (inactive) |  | > 100 µM (inactive) | > 100 µM (inactive) | > 100 µM (inactive) | > 100 µM (inactive) | > 100 µM (inactive) | > 100 µM (inactive) | > 100 µM (inactive) | > 100 µM (inactive) | > 100 µM (inactive) |
| O=C(O)CCNC(=O)c1cc(N(CCBr)CCBr)c([N+](=O)[O-])cc1[N+](=O)[O-] | > 100 µM (inactive) | > 100 µM (inactive) |  | > 100 | > 100 µM (inactive) | > 100 µM (inactive) | > 100 µM (inactive) | > 100 µM (inactive) | > 100 µM (inactive) | > 100 µM (inactive) | > 100 µM (inactive) | > 100 µM (inactive) | > 100 µM (inactive) | > 100 µM (inactive) | > 100 µM (inactive) | > 100 µM (inactive) |  | > 100 µM (inactive) |
| c1ccc2[nH]c(-c3cscn3)nc2c1 [THIABENDAZOLE] | > 100 µM (inactive) | > 100 µM (inactive) |  | > 100 | > 100 µM (inactive) | > 100 µM (inactive) | > 100 µM (inactive) | > 100 µM (inactive) | > 100 µM (inactive) | > 100 µM (inactive) | > 100 µM (inactive) | > 100 µM (inactive) | > 100 µM (inactive) | > 100 µM (inactive) | > 100 µM (inactive) | > 100 µM (inactive) and 54 µM (inactive) | > 100 µM (inactive) | > 100 µM (inactive) |
